Legend:
[1] = In vitro antiarthritic activity assessed as inhibition of bovine serum albumin denaturation at 50 ug/mL incubated for 20 mins at 37 degC following rise in temperature up to 57 degC for 3 mins by UV-Visible spectrophotometry; type: functional
[2] = In vitro antiarthritic activity assessed as inhibition of bovine serum albumin denaturation at 100 ug/mL incubated for 20 mins at 37 degC following rise in temperature up to 57 degC for 3 mins by UV-Visible spectrophotometry; type: functional
[3] = In vitro antiarthritic activity assessed as inhibition of bovine serum albumin denaturation at 200 ug/mL incubated for 20 mins at 37 degC following rise in temperature up to 57 degC for 3 mins by UV-Visible spectrophotometry; type: functional
[4] = In vitro antiarthritic activity assessed as inhibition of bovine serum albumin denaturation at 400 ug/mL incubated for 20 mins at 37 degC following rise in temperature up to 57 degC for 3 mins by UV-Visible spectrophotometry; type: functional
[5] = In vitro antiarthritic activity assessed as inhibition of bovine serum albumin denaturation at 800 ug/mL incubated for 20 mins at 37 degC following rise in temperature up to 57 degC for 3 mins by UV-Visible spectrophotometry; type: functional
[6] = Antiinflammatory activity in human RBC assessed as membrane stabilization at 10 ug/mL after 30 mins by UV-Visible spectrophotometry; type: functional, Erythrocyte
[7] = Antiinflammatory activity in human RBC assessed as membrane stabilization at 50 ug/mL after 30 mins by UV-Visible spectrophotometry; type: functional, Erythrocyte
[8] = Antiinflammatory activity in human RBC assessed as membrane stabilization at 100 ug/mL after 30 mins by UV-Visible spectrophotometry; type: functional, Erythrocyte
[9] = Antiinflammatory activity in human RBC assessed as membrane stabilization at 200 ug/mL after 30 mins by UV-Visible spectrophotometry; type: functional, Erythrocyte
[10] = In vitro antiarthritic activity assessed as inhibition of bovine serum albumin denaturation incubated for 20 mins at 37 degC following rise in temperature up to 57 degC for 3 mins by UV-Visible spectrophotometry; type: functional
Erythrocyte = experiment: Antiinflammatory activity in human RBC assessed as membrane stabilization after 30 mins by UV-Visible spectrophotometry; type: functional
Salmonella typhimurium [11] = experiment: Mutagenic activity in Salmonella typhimurium TA 98 assessed as increase in revertants at 0.039 to 5 mg/plate after 48 hrs by Ames test relative to control; type: toxicity, organism-based; conditions: salmonella enterica subsp. enterica serovar typhimurium
Salmonella typhimurium [12] = experiment: Mutagenic activity in Salmonella typhimurium TA 98 assessed as increase in revertants at 0.039 to 5 mg/plate after 48 hrs by Ames test in presence of S9 liver fraction relative to control; type: toxicity, organism-based; conditions: salmonella enterica subsp. enterica serovar typhimurium
Salmonella typhimurium [13] = experiment: Mutagenic activity in Salmonella typhimurium TA 100 assessed as increase in revertants at 0.039 to 5 mg/plate after 48 hrs by Ames test relative to control; type: toxicity, organism-based; conditions: salmonella enterica subsp. enterica serovar typhimurium
Salmonella typhimurium [14] = experiment: Mutagenic activity in Salmonella typhimurium TA 100 assessed as increase in revertants at 0.039 to 5 mg/plate after 48 hrs by Ames test in presence of S9 liver fraction relative to control; type: toxicity, organism-based; conditions: salmonella enterica subsp. enterica serovar typhimurium
Salmonella typhimurium [15] = experiment: Mutagenic activity in Salmonella typhimurium TA 98 assessed as increase in revertants at 0.012 to 1.660 mg/plate after 48 hrs by Ames test relative to control; type: toxicity, organism-based; conditions: salmonella enterica subsp. enterica serovar typhimurium
Salmonella typhimurium [16] = experiment: Mutagenic activity in Salmonella typhimurium TA 98 assessed as increase in revertants at 0.012 to 1.660 mg/plate after 48 hrs by Ames test in presence of S9 liver fraction relative to control; type: toxicity, organism-based; conditions: salmonella enterica subsp. enterica serovar typhimurium
Salmonella typhimurium [17] = experiment: Mutagenic activity in Salmonella typhimurium TA 100 assessed as increase in revertants at 0.012 to 1.660 mg/plate after 48 hrs by Ames test relative to control; type: toxicity, organism-based; conditions: salmonella enterica subsp. enterica serovar typhimurium
Salmonella typhimurium [18] = experiment: Mutagenic activity in Salmonella typhimurium TA 100 assessed as increase in revertants at 0.012 to 1.660 mg/plate after 48 hrs by Ames test in presence of S9 liver fraction relative to control; type: toxicity, organism-based; conditions: salmonella enterica subsp. enterica serovar typhimurium

Structure (SMILES)	inhibition [1]	inhibition [2]	inhibition [3]	inhibition [4]	inhibition [5]	Activity [6]	Activity [7]	Activity [8]	Activity [9]	inhibition [10]	Activity (Erythrocyte)	Ratio (Salmonella typhimurium [11])	Ratio (Salmonella typhimurium [12])	Ratio (Salmonella typhimurium [13])	Ratio (Salmonella typhimurium [14])	Ratio (Salmonella typhimurium [15])	Ratio (Salmonella typhimurium [16])	Ratio (Salmonella typhimurium [17])	Ratio (Salmonella typhimurium [18])
O=C1NCc2ccc(cc2)-c2cccc(c2)-c2ccc(cc2)CNC(=O)c2cccc(c2)OCc2ccc(cc2)-c2cccc(c2)-c2ccc(cc2)COc2cccc1c2	12.6%	25.2%	48.5%	68.6%	78.2%	61.89%	71.74%	82.51%	91.59%	Dose-dependent effect	Dose-dependent effect	<= 2	<= 2	<= 2	<= 2	<= 2	<= 2	<= 2	<= 2
O=C1COc2ccc3ccccc3c2-c2c(ccc3ccccc23)OCC(=O)NCc2ccc(cc2)-c2cccc(c2)-c2ccc(cc2)CN1	11.7%	37%	59.7%	69.9%	81.9%	77.3%	86.2%	90.6%	97.7%	Dose-dependent effect	Dose-dependent effect	–	–	–	–	–	–	–	–
O=C1NCc2ccc(cc2)-c2cccc(c2)-c2ccc(cc2)CNC(=O)c2cccc(c2)OCc2ccccc2-c2ccccc2COc2cccc1c2	39.2%	49.5%	67.8%	75.7%	87.8%	70.27%	82.6%	91.2%	93.3%	Dose-dependent effect	Dose-dependent effect	<= 2	<= 2	<= 2	<= 2	<= 2	<= 2	<= 2	<= 2
C[C@]12C=CC(=O)C=C1CC[C@@H]1[C@@H]2[C@@H](O)C[C@@]2(C)[C@H]1CC[C@]2(O)C(=O)CO [PREDNISOLONE]	–	–	–	–	–	46.03%	57.94%	84.87%	91.01%	–	–	–	–	–	–	–	–	–	–
O=C1NCc2ccc(cc2)-c2cccc(c2)-c2ccc(cc2)CNC(=O)c2cccc(c2)OCc2ccc(cc2)COc2cccc1c2	13.1%	36.8%	55.3%	67.7%	83.9%	57.63%	66.7%	82.2%	91.8%	Dose-dependent effect	Dose-dependent effect	–	–	–	–	–	–	–	–
O=C1COc2ccccc2-c2ccccc2OCC(=O)NCc2ccc(cc2)-c2cccc(c2)-c2ccc(cc2)CN1	40.5%	61.9%	76.2%	81.4%	98.2%	74.2%	85.65%	93.77%	96.03%	Dose-dependent effect	Dose-dependent effect	–	–	–	–	–	–	–	–
O=C1NCc2ccc(cc2)-c2cccc(c2)-c2ccc(cc2)CNC(=O)c2cccc(c2)OCc2ccccc2COc2cccc1c2	25.4%	50.1%	72.1%	81.9%	92.4%	64.03%	73.33%	82.3%	92.37%	Dose-dependent effect	Dose-dependent effect	–	–	–	–	–	–	–	–
O=C1NCc2ccc(cc2)-c2cccc(c2)-c2ccc(cc2)CNC(=O)c2cccc(c2)OCc2cc(cc([N+](=O)[O-])c2)COc2cccc1c2	23.6%	49.6%	73.1%	82.1%	94.4%	66.71%	75.97%	85.66%	95.5%	Dose-dependent effect	Dose-dependent effect	–	–	–	–	–	–	–	–
O=C(O)Cc1ccccc1Nc1c(Cl)cccc1Cl	5.3%	10.9%	15%	21.3%	76.5%	–	–	–	–	–	–	–	–	–	–	–	–	–	–
O=C1COc2ccc3ccc(cc3c2)OCC(=O)NCc2ccc(cc2)-c2cccc(c2)-c2ccc(cc2)CN1	20.1%	49.5%	67.9%	84.3%	90.6%	76.5%	85.5%	90.9%	97.2%	Dose-dependent effect	Dose-dependent effect	–	–	–	–	–	–	–	–
O=C1NCc2ccc(cc2)-c2cccc(c2)-c2ccc(cc2)CNC(=O)c2cccc(c2)OCc2cccc(c2)COc2cccc1c2	19.4%	44.8%	63.4%	78.3%	90.5%	64.27%	72.53%	83.07%	93.03%	Dose-dependent effect	Dose-dependent effect	–	–	–	–	–	–	–	–
O=C1NCc2ccc(cc2)-c2cccc(c2)-c2ccc(cc2)CNC(=O)c2cccc(c2)OCc2cccc(n2)COc2cccc1c2	22%	38.2%	56.3%	70%	82.4%	70.23%	76.93%	84.73%	95.1%	Dose-dependent effect	Dose-dependent effect	–	–	–	–	–	–	–	–
O=C1COc2cccc(c2)OCC(=O)NCc2ccc(cc2)-c2cccc(c2)-c2ccc(cc2)CN1	14.5%	25.4%	60.5%	83.3%	96.8%	74.5%	85.4%	–	96.4%	Dose-dependent effect	Dose-dependent effect	–	–	–	–	–	–	–	–

Source: ChEMBL document CHEMBL2029287, “Synthesis, study on anti-arthritic, anti-inflammatory activity and toxicity of some novel bis-oxy cyclophane diamides” (Bioorg Med Chem Lett, 2012)
